Results published in US10610573B2, “NDP-MSH for treatment of inflammatory and/or neurodegenerative disorders of the central nervous system” (Westfaelische Wilhelms—Universitaet Muenster, priority 2013, dated 2020).

Columns and labels:
[1] = test system: Th1 and Th17 cells in the CNS; experiment: Flow cytometry of pathogenic Th1 and Th17 cells in the CNS of EAE mice; assay type: in vivo, mouse; details: day 17 post immunization, brain and spinal cord, n=8, vs PBS controls
Method: FIG. 3 Effect of NDP-MSH treatment of numbers of pathogenic Th1 and Th17 cells in the CNS. At day 17 post immunization brain and spinal cord from EAE mice treated with PBS and NDP-MSH as described for FIG. 1 were isolated. Cells were analyzed by multi-color flow cytometry using antibodies against CD4, IL-17, ROR-γt, IFN-γ and T-bet. One representative image (A) as well as the statistical evaluation from n=8 mice in each group (B) is shown, Cells are gated for CD4 and IL-17, ROR-γt, IFN-γ as well as T-bet staining was performed after cell permeabilization.
Reduced numbers of pathogenic Th1 and Th17 cells in the CNS from NDP-MSH treated mice compared to PBS-treated controls. At day 17 post immunization brain and spinal cord were isolated from PBS- and NDP-MSH-treated mice and single cell suspensions were prepared using density gradient centrifugation. Subsequently, cells were analyzed by multi-color flow cytometry using antibodies against CD4, IL-17, ROR-gt, IFN-g and T-bet. […] Cells are gated for CD4 and IL-17, ROR-gt, IFN-g as well as T-bet staining was performed after cell permeabilization.

MC-1R deficient mice = experiment: EAE in MC-1R deficient mice; assay type: in vivo, mouse; details: treated as in Ex. 1
Excerpt: FIG. 6 Involvement of the melanocortin-1 receptor in effects of NDP-MSH on EAE progression. EAE was induced in MC-1R deficient mice as described in FIG. 1. Subsequently, disease development was monitored over time.
To investigate whether the NDP-MSH induced effects on the progression of EAE were mediated via binding to a functional MC-1R, EAE was induced in MC-1R deficient mice with a point mutation in the MC-1R gene resulting in a truncated protein (Roberts et al., 1993). Mice were immunized with MOG35-55, injected with pertussis toxin and treated with NDP-MSH or PBS as described in Ex. 1. Subsequently, disease development was monitored over time.

[2] = test system: Foxp3+ regulatory T cells; experiment: Flow cytometry of Foxp3+ regulatory T cells from brain tissue of EAE mice; assay type: in vivo, mouse; details: day 17 post immunization, vs controls
Method: FIG. 4 Induction of functional regulatory T cells in the CNS by NDP-MSH treatment. Numbers, phenotype, and function of Foxp3^+ regulatory T cells isolated from brain tissue of NDP-MSH and PBS treated mice were analyzed. One representative dotplot (A) as well as the statistical evaluation from n=6 mice (B) is depicted. Cells are gated for CD4 and Foxp3 as well as Helios staining was performed after cell permeabilization. *, p<0.05 versus PBS treated mice.
Numbers, phenotype and function of Foxp3^+ regulatory T cells (Treg) isolated from brain tissue of NDP-MSH and PBS treated mice as described in Ex. 1 was analyzed at day 17 post immunization by flow cytometry analysis.

effector T cells = experiment: Suppression of effector T cell proliferation in vitro by Treg from treated mice; assay type: cell-based, mouse
dendritic cells = experiment: DC phenotype in regional lymph nodes of immunized mice; assay type: in vivo, mouse; details: vs PBS
Method: FIG. 5 Generation of tolerogenic dendritic cells by NDP-MSH treatment. The DC phenotype in regional lymph nodes from immunized NDP-MSH and PBS treated mice was analyzed. One representative dot plot (A) as well as the statistical evaluation from n=2-6 mice (B) is depicted. Cells are gated for MHCII and IL-10 as well as IFN-γ staining was performed after cell permeabilization. *, p<0.05 versus PBS treated mice.
Further, the DC phenotype in regional lymph nodes from immunized NDP-MSH and PBS treated mice was analyzed.

[3] = test system: C57BL/6 mice with experimental autoimmune encephalomyelitis (EAE); experiment: MOG35-55-induced EAE, therapeutic systemic NDP-MSH treatment; assay type: in vivo, mouse; details: 5 μg NDP-MSH i.v. every 48 h from clinical score 2-3 (day 12), vs PBS
Method: FIG. 1 Effect of systemic NDP-MSH treatment on ongoing Experimental Autoimmune Encephalomyelitis (EAE). C57BL/6 mice were actively immunized by subcutaneous injection of myelin oligodendrocyte glycoprotein (MOG35-55) emulsified in Complete Freund's Adjuvant and systemically treated with 5 μg NDP-MSH or PBS every 48 hours beginning at a clinical score of 2-3. Mice were monitored for clinical score (A) and body weight (B) and sacrificed at day 17. Data from n=17 mice in each group is depicted, *, p<0.05 versus PBS-treated controls.
To investigate whether NDP-MSH is able to inhibit autoimmunity and inflammation in organs different from the skin, such as the central nervous system (CNS), the mouse model of experimental autoimmune encephalomyelitis (EAE), a T cell-mediated inflammatory autoimmune disease resembling human multiple sclerosis, was used.
Therefore, C57BL/6 mice were actively immunized by subcutaneous injection of myelin oligodendrocyte glycoprotein (MOG35-55) emulsified in Complete Freund's Adjuvant at the back skin (day 0). At day 0 and day 2 mice received intraperitoneal injections of 400 ng pertussis toxin and disease development was monitored daily. […] All mice were sacrificed at day 17 and analyzed on a cellular and molecular level. […]

Devic mice = experiment: Spontaneous EAE model (Devic mice); assay type: in vivo, mouse
Method: FIG. 7 Devic mice at the age of 38 days and a clinical score of 7 (severe hind limb paralysis) were injected intravenously with 5 μg NDP-MSH every other day for 3 weeks. […] Disease progression was monitored over time.
To characterize the effects of NDP-MSH in a spontaneous EAE model Devic mice were used. Devic mouse mutants express transgenic T- and B-cell receptors specific for MOG and spontaneously develop EAE at the age of 4-5 weeks (Bettelli et al., 2006).
Starting at the age of 38 days when mice reached a clinical score of 7 (severe hind limb paralysis) animals were injected intravenously with 5 μg NDP-MSH every other day. […] Part of the mice almost completely recovered from disease. At day 60, NDP-MSH treatment was interrupted and mice were monitored for the onset of clinical symptoms.

MOG-immunized mice = experiment: MOG-induced EAE, preemptive NDP-MSH injection; assay type: in vivo, mouse; details: preemptive injection before onset of hind limb paralysis
Excerpt: The neuropeptide α-MSH is a potent immunomodulator capable of inducing immunosuppression and tolerance. Using the mouse model of experimental autoimmune encephalomyelitis (EAE) the present inventors systemically treated MOG-immunized mice with NDP-MSH before and after the onset of hind limb paralysis. […] Since signaling via melanocortin-1-receptor (MC-1R) mediates the immunomodulatory effects of α-MSH, EAE was induced in MC-1R-deficient mice.

primary mouse neurons = experiment: Glutamate-stimulated primary neurons, apoptosis genes and neuronal damage; assay type: cell-based
Method: FIG. 10 Expression of pro-apoptotic (caspase-8) and anti-apoptotic (Bcl-2) genes in primary mouse neurons after treatment with […] Glutamat or 50 μM Glutamat+1 nM NDP-MSH. Primary murine neurons were stimulated with glutamate which results in apoptosis (increased expression of pro-apoptotic caspase-8 and a reduced expression of anti-apoptotic Bcl-2 relative to PBS-treated controls).
The neuroprotective role of NDP-MSH was further confirmed analyzing neurons from NDP-MSH-treated animals and vehicle-treated controls (isolated before and after MOG immunization) using histological staining tests for the detection of myelin, NeuN, act. Caspase 3 and TUNEL. Further, in vitro stimulation of neurons from embryonic mice with glutamate—which causes cell damage—in the presence or absence of NDP-MSH and subsequent histological staining tests for the detection of myelin, NeuN, act. […] Thus, a neuroprotective effect of NDP-MSH is a very likely explanation for the observed effect in the EAE model.

DEREG mice = experiment: EAE in Treg-depleted DEREG mice; assay type: in vivo, mouse; details: Treg depleted by diphtheria toxin, 5 μg i.v. every 48 hours
Excerpt: Treg were depleted in DEREG mice as described by Lahl et al. (2007) by systemic treatment with diphtheria toxin. Subsequently, EAE was induced as described in FIG. 1.
Subsequently, EAE was induced as described in Ex. 1.

Nur77 = Nur77 expression in NDP-MSH stimulated neurons; assay type: cell-based; details: vs vehicle-treated controls
[4] = test system: rat primary astrocytes and microglia; details: in vitro, via MC-4R signaling; cited from earlier work
brain tissue of EAE mice = experiment: Histology and immunofluorescence of brain tissue from EAE mice; assay type: in vivo, mouse; details: day 17 post immunization, vs PBS
Method: FIG. 2 Histological analyses of brain tissue obtained from mice treated as described in FIG. 1. […] One representative image for each group (+NDP-MSH, +PBS) is shown.
Brain tissue from mice treated with NDP-MSH or PBS at day 17 post immunization obtained from Ex. 1 was analyzed. […] One representative overview (A) as well as a sectional enlargement (B) is depicted for each group. […] One representative image for each group is shown.

CD11c-DTR mice = experiment: EAE in DC-depleted CD11c-DTR mice; assay type: in vivo, mouse; details: DC depleted by diphtheria toxin, 5 μg i.v. every 48 hours
Method: DC were depleted in C11c-DTR mice as described by Hochweller et al. (2008) by systemic treatment with diphtheria toxin. Subsequently, EAE was induced as described in FIG. 1. 5 μg NDP-MSH were injected intravenously every 48 hours and disease progression was monitored over time.

[5] = rat, in vivo; cited from earlier work
[6] = 50 μM glutamate + 1 nM NDP-MSH vs glutamate alone

Substance: [Nle^4, D-Phe^7]-α-MSH [NDP-MSH]
- reduced infiltration of Th1 cells in the CNS [1]: 2 factor
- reduced infiltration of Th17 cells in the CNS [1]: 5 factor
- disease development (hind limb paralysis) (MC-1R deficient mice): developed hind limb paralysis similar to PBS treated controls
- numbers of Foxp3+ Treg expressing Helios or CTLA-4 in brain tissue [2]: present at higher numbers
- function of Treg from treated mice: proliferation of effector T cells (effector T cells): efficiently inhibited the proliferation of effector T cells
- DC expression of PD-L1 or IL-10 (dendritic cells): increased levels
- DC maturation markers CD80 and IFN-γ (dendritic cells): down-regulated
- body weight [3]: started gaining weight after the first injection
- paralysis (clinical score) [3]: recovered from paralysis
- disease course (clinical symptoms of EAE) (Devic mice; 5 μg i.v. every other day for 3 weeks from day 38, clinical score 7): significant amelioration of disease in all animals
- body weight (Devic mice; 5 μg i.v. every other day for 3 weeks, vs PBS): gained weight
- disease recurrence after treatment interruption (Devic mice; treatment interrupted at day 60, several weeks without injection): no disease recurrence
- EAE development (MOG-immunized mice): resistant to EAE development
- expression of anti-apoptotic Bcl-2 (primary mouse neurons; [6]): increased expression of anti-apoptotic Bcl-2
- expression of pro-apoptotic caspase-8 (primary mouse neurons; [6]): reduced expression of pro-apoptotic caspase-8
- glutamate-induced neuronal damage (myelin, NeuN, act. Caspase 3, TUNEL staining) (primary mouse neurons; neurons from embryonic mice, in vitro): reduce the glutamate-induced neuronal damage
- disease severity (DEREG mice): reduced disease severity
- Nur77 receptor expression (Nur77): induction of the neuroprotective Nur77 receptor
- release of IL-10 and TGF-β [4]: stimulates the release of IL-10 and TGF-β
- expression of tissue destruction marker APP in the brain (brain tissue of EAE mice; immunofluorescence): Dramatically reduced expression
- expression of tissue inflammation marker RILPL2 in the brain (brain tissue of EAE mice; immunofluorescence): Dramatically reduced expression
- mononuclear pro-inflammatory cells infiltrating the brain (H&E staining) (brain tissue of EAE mice): almost no cell infiltrates were detectable
- myelination of the brain (luxol fast blue staining) (brain tissue of EAE mice): tremendous re-myelination
- disease onset (CD11c-DTR mice): prevented disease onset

Substance: melanotan-II
- nerve regeneration and neuroprotection [5]: effective in nerve regeneration and neuroprotection
